Experimental data published in ChEMBL document CHEMBL2331487, “Synthesis and antiplasmodial and antimycobacterial evaluation of new nitroimidazole and nitroimidazooxazine derivatives” (ACS Med Chem Lett, 2013).
In brackets after ≈: the same amount, converted by molar mass.

Assays:
[1] = system: Mycobacterium tuberculosis; assay: Antimycobacterial activity Mycobacterium tuberculosis H37Rv assessed as growth inhibition measured at day 7 by broth microdilution method; format: functional; settings: 168 h
[2] = Selectivity index, ratio of IC50 for rat L6 cells to IC50 for Plasmodium falciparum K1 by [3H] hypoxanthine uptake inhibition assay; format: toxicity, cell-based; settings: rat L6 cells versus Plasmodium falciparum K1, read-out: Ratio IC50
[3] = system: L6; assay: Cytotoxicity against rat L6 cells after 72 hrs by fluorometric analysis; format: cell-based; settings: L6, 72 h
[4] = system: Plasmodium falciparum; assay: Antimalarial activity against Plasmodium falciparum K1 assessed as inhibition of [3H] hypoxanthine uptake by liquid scintillation counting; format: functional, organism-based

SMILES	MIC99 [1] [µM]	selectivity ratio [2]	IC50 [3] [µM]	IC50 [4] [µM]
NC[C@H]1O[C@H](O[C@H]2[C@H](O)[C@@H](O[C@H]3O[C@H](CO)[C@@H](O)[C@H](N)[C@H]3O)[C@H](N)C[C@@H]2N)[C@H](O)[C@@H](O)[C@@H]1O [KANAMYCIN]	5.4 (≈ 2.62 µg/mL)	–	–	–
CCN(CC)C(c1ccc(CO[C@@H]2COc3nc([N+](=O)[O-])cn3C2)cc1)c1nnnn1C(C)(C)C (some centres undefined)	0.313 (≈ 0.152 µg/mL)	14.2	113	7.95
OCCNc1ccnc2cc(Cl)ccc12	> 160	159	233	1.47
COc1cc(NC(C)CCCNC(c2ccc(CO[C@@H]3COc4nc([N+](=O)[O-])cn4C3)cc2)c2nnnn2C(C)(C)C)c2ncccc2c1 (some centres undefined)	0.625 (≈ 0.419 µg/mL)	37	75.9	2.04
CN(CCO)CCNc1ccnc2cc(Cl)ccc12	> 160	995	77.6	0.078
O=Cc1ccc(CO[C@@H]2COc3nc([N+](=O)[O-])cn3C2)cc1	0.25 (≈ 0.0758 µg/mL)	–	–	–
CC(C)(C)n1nnnc1C(NCCCNc1ccnc2cc(Cl)ccc12)c1ccc(CO[C@@H]2COc3nc([N+](=O)[O-])cn3C2)cc1 (some centres undefined)	–	85	41.5	0.485
CC(C)(C)n1nnnc1C(c1ccc(CO[C@@H]2COc3nc([N+](=O)[O-])cn3C2)cc1)N1CCCC1 (some centres undefined)	0.313 (≈ 0.151 µg/mL)	8.65	75.2	8.7
CC(C)(C)n1nnnc1C(NCCCCNc1ccnc2cc(Cl)ccc12)c1ccc(CO[C@@H]2COc3nc([N+](=O)[O-])cn3C2)cc1 (some centres undefined)	0.625 (≈ 0.413 µg/mL)	175	29.3	0.164
NCCNc1ccnc2cc(Cl)ccc12	> 160	71.2	21.2	0.298
CN(C)C(c1ccc(CO[C@@H]2COc3nc([N+](=O)[O-])cn3C2)cc1)c1nnnn1C(C)(C)C (some centres undefined)	0.625 (≈ 0.285 µg/mL)	11.2	177	15.8
O=[N+]([O-])c1cn2c(n1)OC[C@@H](O)C2	40 (≈ 7.41 µg/mL)	–	331	> 270
CCN(CC)CCCC(C)Nc1ccnc2cc(Cl)ccc12 (centres undefined) [CHLOROQUINE]	> 160	–	–	–
COc1cc(NC(C)CCCNC(c2cccc(CO[C@@H]3COc4nc([N+](=O)[O-])cn4C3)c2)c2nnnn2C(C)(C)C)c2ncccc2c1 (some centres undefined)	5 (≈ 3.35 µg/mL)	145	143	0.985
COc1cc(NC(C)CCCN)c2ncccc2c1 (centres undefined) [PRIMAQUINE]	80 (≈ 20.7 µg/mL)	–	–	0.643
OCCCNc1ccnc2cc(Cl)ccc12	> 160	164	178	1.09
CN(CCO)CCCNc1ccnc2cc(Cl)ccc12	> 160	63	24.8	0.391
CC(C)(C)n1nnnc1C(NCCNc1ccnc2cc(Cl)ccc12)c1ccc(CO[C@@H]2COc3nc([N+](=O)[O-])cn3C2)cc1 (some centres undefined)	0.313 (≈ 0.198 µg/mL)	246	24.6	0.1
CN[C@@H]1[C@H](O[C@H]2[C@H](O[C@H]3[C@H](O)[C@@H](O)[C@H](N=C(N)N)[C@@H](O)[C@@H]3N=C(N)N)O[C@@H](C)[C@]2(O)C=O)O[C@@H](CO)[C@H](O)[C@H]1O [STREPTOMYCIN]	0.27 (≈ 0.157 µg/mL)	–	–	–
O=Cc1cccc(CO[C@@H]2COc3nc([N+](=O)[O-])cn3C2)c1	0.625 (≈ 0.19 µg/mL)	0.54	34.3	62.6
O=[N+]([O-])c1cn2c(n1)OC[C@@H](OCCCNc1ccnc3cc(Cl)ccc13)C2	1.25 (≈ 0.505 µg/mL)	12.8	134	10.5
COc1cc([C@@H]2c3cc4c(cc3[C@H](O)[C@H]3COC(=O)[C@H]23)OCO4)cc(OC)c1OC [PODOFILOX]	–	–	0.0193	–
